We go through 15 compounds from ChEMBL document CHEMBL3352543, “Synthesis and structure-activity relationship of novel cinnamamide derivatives as antidepressant agents” (Bioorg Med Chem Lett, 2014).

Data set [1] concerns Mus musculus. The experiment in a line: Toxic CNS activity in C57BL/6 mouse assessed as locomotor activity by measuring exploratory activity counts at 10 mg/kg, ig by open-field test (reference value: 94.50 +/- 6.18 counts). Type of data set: toxicity, organism-based. Also noted: dose 10 mg/kg, route intragastric. The settings on record: in vivo, po.
Data set [2] is described as follows: Solubility in water. The following applies: buffer. Type of data set: physicochemical.
Data set [3] deals with Mus musculus. The experiment in a line: Antidepressant activity in C57BL/6 mouse assessed as decrease in immobility duration at 10 mg/kg, ig by tail suspension test. The class given is functional. The settings on record: C57BL/6, Tail, po, route intragastric.
For data set [4], the system named is Mus musculus. In words: Antidepressant activity in C57BL/6 mouse assessed as decrease in immobility duration at 10 mg/kg, ig by forced swim test. The class given is functional. The following applies: C57BL/6, po, route intragastric.
For data set [5], the system named is Mus musculus. In words: Antidepressant activity in ig dosed C57BL/6 mouse assessed as decrease in immobility duration by tail suspension test. Type of data set: functional, organism-based.
Data set [6] deals with Mus musculus. The experiment in a line: Antidepressant activity in C57BL/6 mouse assessed as decrease in immobility duration at 5 mg/kg, ig by forced swim test. Type of data set: functional. The following applies: C57BL/6, po, route intragastric.
The subject of data set [7] is Mus musculus. In words: Antidepressant activity in C57BL/6 mouse assessed as decrease in immobility duration at 2.5 mg/kg, ig by forced swim test. The settings on record: C57BL/6, po, route intragastric. Type of data set: functional.
Data set [8] concerns Mus musculus. In words: Antidepressant activity in ig dosed C57BL/6 mouse assessed as decrease in immobility duration by forced swim test. The class given is functional, organism-based.

Regarding `O=C(/C=C/c1cc2c(c(C(F)(F)F)c1)OCO2)N1CCNCC1`, the Activity in the data set with Mus musculus [1] is reported as 91.54. Besides, the solubility result in data set [2] is “soluble”. Also, in the data set with Mus musculus [3], the inhibition in vivo at 10 mg/kg was found to be 21.8%.

For the compound `CN(C)C(=O)/C=C/c1cc2c(c(C(F)(F)F)c1)OCO2`, the Activity in the data set with Mus musculus [1] is listed as 84. The inhibition in vivo at 10 mg/kg in the data set with Mus musculus [3] came out at 12.6%.

For `CC(C)CNC(=O)/C=C/c1cc2c(c([N+](=O)[O-])c1)OCO2`, the Activity in the data set on Mus musculus [1] was 98. For the same compound, in the data set on Mus musculus [3], the inhibition in vivo at 10 mg/kg came out at 6.4%.

Consider `CC(C)CNC(=O)/C=C/c1cc2c(c(C(F)(F)F)c1)OCO2`, for which the inhibition in vivo at 10 mg/kg with Mus musculus [4] turned out to be 43.5%; in the data set on Mus musculus [3] it was 42.5%. The inhibition entry with Mus musculus [5] and in the data set on Mus musculus [8] was “Dose-dependent effect” each time. The Activity in the data set with Mus musculus [1] turned out to be 99.4. For the same compound, the inhibition in vivo at 5 mg/kg in the data set on Mus musculus [6] amounted to 34.4%. Besides, the inhibition in vivo at 2.5 mg/kg in the data set on Mus musculus [7] worked out at 20.8%.

For `COc1cc(/C=C/C(=O)NCC(C)C)cc2c1OCO2`, the Activity in the data set with Mus musculus [1] is 100.92. The inhibition in vivo at 10 mg/kg in the data set on Mus musculus [3] is 11.7%.

`CC(C)CNC(=O)/C=C/c1cc(Cl)c2c(c1)OCO2`: the Activity in the data set on Mus musculus [1] is 94.75. Besides, in the data set on Mus musculus [3], the inhibition in vivo at 10 mg/kg was 29.1%.

For the compound `CC(C)CNC(=O)CCc1cc2c(c(C(F)(F)F)c1)OCO2`, in the data set on Mus musculus [1], the Activity is on record as 86.6. The inhibition in vivo at 10 mg/kg in the data set on Mus musculus [3] was determined as 28.8%.

Regarding `CC(C)CNC(=O)/C=C/c1ccc2c(c1)OCO2` [FOGARAMIDE], the Activity with Mus musculus [1] is 89.24. Also, in the data set on Mus musculus [3], the inhibition in vivo at 10 mg/kg came out at 13.2%.

For the compound `CCN(CC)C(=O)/C=C/c1cc2c(c(C(F)(F)F)c1)OCO2`, the Activity in the data set with Mus musculus [1] is 95.3. Further, in the data set on Mus musculus [3], the inhibition in vivo at 10 mg/kg came to 40.2%.

On to `CC(C)CNC(=O)c1cc2c(c(C(F)(F)F)c1)OCO2`, for which the Activity in the data set on Mus musculus [1] turned out to be 93.2. Also, the inhibition in vivo at 10 mg/kg in the data set on Mus musculus [3] is 33.1%.

For the compound `CN1CCN(C(=O)/C=C/c2cc3c(c(C(F)(F)F)c2)OCO3)CC1`, the Activity in the data set with Mus musculus [1] was found to be 86.2. In data set [2], the solubility entry is listed as “soluble”. In addition, in the data set on Mus musculus [3], the inhibition in vivo at 10 mg/kg stood at 24%.

`O=C(/C=C/c1cc2c(c(C(F)(F)F)c1)OCO2)N1CCCCC1`: the Activity in the data set with Mus musculus [1] stood at 83.6. Besides, the inhibition in vivo at 10 mg/kg in the data set with Mus musculus [3] amounted to 31.5%.

Consider `CC(C)CNC(=O)/C=C/c1cc(I)c2c(c1)OCO2`, for which the Activity in the data set on Mus musculus [1] was determined as 94.42. In addition, the inhibition in vivo at 10 mg/kg with Mus musculus [3] stood at 15.1%.

Regarding `CNCCC(Oc1ccc(C(F)(F)F)cc1)c1ccccc1` (stereo not drawn) [FLUOXETINE], the inhibition in vivo at 10 mg/kg in the data set on Mus musculus [4] worked out at 29%; in the data set with Mus musculus [3] it was 39.4%. Further, the Activity in the data set with Mus musculus [1] came to 102.

As to `O=C(c1cc2c(c(C(F)(F)F)c1)OCO2)N1CCCCC1`, the Activity in the data set with Mus musculus [1] is 87.4. The inhibition in vivo at 10 mg/kg with Mus musculus [3] was 37.1%.
